In US20240165272A1, “Liver-targeted fluorescence/photoacoustic dual-modal probe for early detecting drug-induced hepatic inflammation and autoimmune hepatitis” (BEIJING UNIVERSITY OF TECHNOLOGY, priority 2022, published 2024):

What was measured:
[1] = Fluorescence response of hCy-Tf-CA to O2·^− in ethanol-phosphate buffer
Description: (§1) 10 μL of probe stock solution (1 mM) was added to 1 mL of ethanol-phosphate buffer solution (ethanol/PBS=1/1, v/v, pH=7.4). To characterize the responsiveness of hCy-Tf-CA, 40 μL O2·^− stock solution (2.5 mM) was added to above solution.
The reaction system was prepared under the same experimental conditions. […] That is due to the nucleophilic O2·^− cleavage of trifluoromethonium sulfonate, which restored the strong electron-donating phenol and it-conjugation on the fluorophore. […] The probe hCy-Tf-CA is an enhanced fluorescence probe.
Under the same experimental conditions, 10 μL of probe stock solution (1 mM) was added to 1 mL of ethanol-phosphate buffer solution, the O2·^− titration experiment was then carried out. The fluorescence intensity at 730 nm were tested 10 minutes later. […] (FIGS. 4 and 5).

[2] = Photoacoustic response of hCy-Tf-CA to O2·^−; conditions: probe 10 μM, O2·^− 100 μM, 10 min
Description: as §1
The reaction system was prepared under the same experimental conditions. […] The photoacoustic signal of hCy-Tf-CA only at 710 nm is very weak (FIG. 3).
Under the same experimental conditions, 10 μL of probe stock solution (1 mM) was added to 1 mL of ethanol-phosphate buffer solution, the O2·^− titration experiment then was carried out and the photoacoustic intensity at 710 nm were tested 10 minutes later.

[3] = Selective response: fluorescence against potential interferents; conditions: probe 10 μM
Description: The specificity of hCy-Tf-CA was determined against various potential interferents (Na^+, K^+, Ca^2+, Mg^2+, Zn^2+, Cu^2+, HS^−, HClO, H2O2, ·OH, ONOO^−, glucose, glutathione, cysteine, vitamin C, nitroreductase, alkaline phosphatase, β-galactosidase and leucine aminopeptidase). Under the same experimental conditions, 10 μL of probe stock solution (1 mM) was added to 1 mL of ethanol-phosphate buffer solution. Then stock solutions of various potential interferents were respectively added to above solution, then the fluorescence intensity at 730 nm was tested. […] Therefore, these potential interferents barely effect on the selective response to O2·^−, implying that the probe hCy-Tf-CA prepared by the invention has good selectivity.

[4] = tested on: HepG2 cells; assay: Biocompatibility study, CCK-8 assay; format: cell-based; conditions: 24 h exposure to 10 μM
Description: Inspired by the excellent responsiveness of the probe hCy-Tf-CA to O2·^−, its biocompatibility and potential for further applications in living cells were assessed. HepG2 cells were plated in a 96-well plates at […] and incubated overnight in the cell incubator. Then the cells were washed with culture medium and incubated with various concentrations of hCy-Tf-CA (1, 2, 4, 8, 10 μM) at 37° C. for 24 h. After removing the above solution, CCK-8 reagent diluted with culture medium was added to each well and incubated at 37° C. for 60 min. Finally, the absorbance was finally measured at 450 nm by a microplate reader. Cell viability was calculated using the following formula:
Calculation of cell viability: Cell viability (%)=(Aexperimental group−Ablank group)/(Acontrol group−Ablank group)×100%.

[5] = tested on: HepG2 cells; assay: Fluorescence imaging of endogenous O2·^− in HepG2 cells; format: cell-based
Description: To evaluate the capacity of hCy-Tf-CA to image O2·^− fluctuation in living cells, HepG2 cells were plated in a glass-bottom dish for 24 h to 80% density before the experiment. Cell fluorescence imaging of hCy-Tf-CA was divided into five groups. In the first group, hCy-Tf-CA (10 μM) was incubated with cells for 30 min. In the second group, cells were pretreated with lipopolysaccharide (LPS, 1 μg/mL) and interferon-gamma (IFN-γ, 50 ng/mL) for 12 h, then washed twice with PBS buffer before incubating with hCy-Tf-CA (10 μM) for 30 min. In the third group, cells were pretreated with LPS (1 μg/mL), IFN-γ (50 ng/mL) and 2,2,6,6-tetramethylpiperidine-N-oxyl (TEMPO, 300 μM) for 12 h, then washed twice with PBS buffer before incubating with hCy-Tf-CA (10 μM) for 30 min. In the fourth and fifth groups, cells were pretreated with H2O2 or Na2SO3 (100 μM) for 30 min, then washed twice with PBS buffer before incubating with hCy-Tf-CA (10 μM) for 30 min. The cells were washed 3 times with PBS buffer before cell imaging. Fluorescence images of the cells were captured by a Nikon AX R microscope with DAPI channel (λex'404 nm, λem=425-475 nm) and Cy5.5 channel (λex=639 nm, λem=663-738).

[6] = tested on: mouse model of drug-induced hepatic inflammation; assay: Fluorescence/photoacoustic dual-modal imaging of drug-induced (APAP) hepatic inflammation; format: in vivo, Balb/c female mice
Description: In order to visually detect hepatic O2·^− concentration and drug-induced hepatic inflammation by fluorescence/photoacoustic dual-modal imaging, Balb/c female mice were intraperitoneally injected with overdose of APAP (300 mg/Kg) to cause drug-induced hepatic inflammation, and PBS injected mice served as the control group. The probe hCy-Tf-CA (50 μM, 100 μL) were administrated intravenously for in vivo fluorescence/photoacoustic dual-modal imaging. Images at predetermined time points were recorded on IVIS imaging system (Perkin Elmer, λex=675 nm, λem=760 nm) and InVision 256-TF imaging system (iThera Medical, λex=710 nm).

[7] = tested on: mouse model of autoimmune hepatitis; assay: Fluorescence/photoacoustic dual-modal imaging of autoimmune hepatitis (Con A); format: in vivo, Balb/c female mice
Description: In order to visually detect autoimmune hepatitis by fluorescence/photoacoustic dual-modal imaging, Balb/c female mice were intravenously injected with a single dose Con A (20 mg/Kg, dissolved in 100 μL PBS) for 2 h to induce early autoimmune hepatitis, and the remaining mice were treated with PBS solution as controls. hCy-Tf-CA was then intravenously injected into mice for in vivo imaging, and representative NIRF/PA dual-modal images of different treated mice were recorded at chosen times. Images at predetermined time points were recorded on IVIS imaging system (Perkin Elmer, λex=675 nm, λem=760 nm) and InVision 256-TF imaging system (iThera Medical, λex=710 nm).

Question: What does the source list for C[C@H](CCC(=O)NCCC[N+]1=C(/C=C/C2=C3Oc4cc(OS(=O)(=O)C(F)(F)F)c(Cl)cc4C=C3CCC2)C(C)(C)c2c1ccc1ccccc21)[C@H]1CC[C@H]2[C@@H]3[C@H](O)C[C@@H]4C[C@H](O)CC[C@]4(C)[C@H]3C[C@H](O)[C@]12C [hCy-Tf-CA]?
Answer: O2·^− concentration at which fluorescence intensity reached a plateau ([1]; probe 10 μM, 10 min, at 740 nm as printed): 100 µM; fluorescence intensity at 730 nm increase compared with probe alone ([1]; probe 10 μM, O2·^− 100 μM, 10 min, λex=680 nm, ethanol/PBS=1/1, pH=7.4): 17 fold; fluorescence intensity increase after reaction with O2·^− ([1]; summary statement): 17 times; photoacoustic signal enhancement at 710 nm after treatment with O2·^− [2]: 7 fold; fluorescence response to O2·^− in the selectivity test ([3]; 730 nm): significant response; fluorescence response at 730 nm to potential interferents ([3]; analytes 100 μM, enzyme 0.1 U·mL^−1): barely respond; cell viability [4]: more than 90%; intracellular fluorescence after LPS/IFN-γ in the presence of TEMPO ([5]; HepG2, LPS/IFN-γ plus TEMPO 300 μM for 12 h, probe 10 μM 30 min): largely suppressed; intracellular fluorescence, normal conditions ([5]; HepG2, probe 10 μM, 30 min, no pretreatment): weak fluorescence; fluorescence fluctuations in H2O2-treated or SO3^2−-treated cells ([5]; HepG2 pretreated with H2O2 or Na2SO3 100 μM for 30 min, probe 10 μM 30 min): negligible; intracellular fluorescence intensity after LPS/IFN-γ ([5]; HepG2 pretreated with LPS 1 μg/mL and IFN-γ 50 ng/mL for 12 h, probe 10 μM 30 min): significantly increased; ex vivo hepatic fluorescence signal, APAP-treated mice versus health mice ([6]; 2 h after intravenous administration): obviously higher; ex vivo organ distribution of fluorescence signal ([6]; 2 h after intravenous administration, liver versus heart, spleen, lung and kidney): mainly located in the liver; in vivo fluorescence signal intensity, APAP-treated mice versus control mice ([6]; 2 h post-injection, probe 50 μM 100 μL i.v., APAP 300 mg/Kg i.p.): significantly higher; photoacoustic signal in the liver, APAP-treated mice versus healthy mice ([6]; λex=710 nm, cross-sectional images): significantly higher; in vivo fluorescence signal intensity in the liver region of Con A-treated mice over time ([7]; Con A 20 mg/Kg i.v. for 2 h, probe i.v.): gradually enhanced; rate of increase of hepatic photoacoustic signal, Con A-treated mice versus control mice ([7]; after injection of probe): increased faster; photoacoustic signal in the liver, Con A-treated mice versus healthy mice ([7]; at 2 h, λex=710 nm): obviously higher; location of fluorescence signals (ex vivo) ([7]; both groups (Con A-treated and control)): mainly located in the liver; ex vivo fluorescence signals, Con A-treated mice versus control mice ([7]; mouse, in vivo): apparently brighter
